Test results published in the OligoGym collection.
Bases are written 5' to 3'; sugars and linkages follow in the same order, as letters with counts (s phosphorothioate, o phosphodiester; PS: all linkages phosphorothioate). C may stand for cytosine or 5-methylcytosine; the collection does not tell. l = locked nucleic acid (LNA); d = 2'-deoxy (DNA)

Molecular target: HIF1A
Test: HeLa, 100 nM transfected, 24 h, mean of 3
Conditions: ASO

| Sequence | caspase activation (% of PBS control) |
| --- | --- |
| TGGCAAGCATCCTGTA (sugars l2 d10 l4, PS) | 346 |
| TGGCAAGCATCCTGTA (sugars l2 d11 l1 d1 l1, PS) | 369 |
| TGGCAAGCATCCTGTA (sugars l2 d11 l3, PS) | 365 |
| TGGCAAGCATCCTGTA (sugars l2 d12 l2, PS) | 389 |
| TGGCAAGCATCCTGTA (sugars l2 d13 l1, PS) | 489 |
| TGGCAAGCATCCTGTA (sugars l3 d1 l1 d6 l5, PS) | 536 |
| TGGCAAGCATCCTGTA (sugars l3 d1 l1 d7 l4, PS) | 377 |
| TGGCAAGCATCCTGTA (sugars l3 d1 l1 d8 l3, PS) | 413 |
| TGGCAAGCATCCTGTA (sugars l3 d1 l1 d9 l2, PS) | 382 |
| TGGCAAGCATCCTGTA (sugars l3 d1 l1 d10 l1, PS) | 354 |
| TGGCAAGCATCCTGTA (sugars l3 d8 l1 d1 l3, PS) | 477 |
| TGGCAAGCATCCTGTA (sugars l3 d8 l1 d2 l2, PS) | 297 |
| TGGCAAGCATCCTGTA (sugars l3 d8 l1 d3 l1, PS) | 230 |
| TGGCAAGCATCCTGTA (sugars l3 d8 l2 d1 l2, PS) | 414 |
| TGGCAAGCATCCTGTA (sugars l3 d8 l2 d2 l1, PS) | 221 |
| TGGCAAGCATCCTGTA (sugars l3 d8 l3 d1 l1, PS) | 449 |
| TGGCAAGCATCCTGTA (sugars l3 d8 l5, PS) | 476 |
| TGGCAAGCATCCTGTA (sugars l3 d9 l1 d1 l2, PS) | 416 |
| TGGCAAGCATCCTGTA (sugars l3 d9 l1 d2 l1, PS) | 210 |
| TGGCAAGCATCCTGTA (sugars l3 d9 l2 d1 l1, PS) | 634 |
| TGGCAAGCATCCTGTA (sugars l3 d9 l4, PS) | 582 |
| TGGCAAGCATCCTGTA (sugars l3 d10 l1 d1 l1, PS) | 251 |
| TGGCAAGCATCCTGTA (sugars l3 d10 l3, PS) | 273 |
| TGGCAAGCATCCTGTA (sugars l3 d11 l2, PS) | 314 |
| TGGCAAGCATCCTGTA (sugars l3 d12 l1, PS) | 237 |

| Sequence | caspase activation (% of PBS control) |
| --- | --- |
| TGGCAAGCATCCTGTA (sugars l4 d7 l1 d1 l3, PS) | 522 |
| TGGCAAGCATCCTGTA (sugars l4 d7 l1 d2 l2, PS) | 323 |
| TGGCAAGCATCCTGTA (sugars l4 d7 l1 d3 l1, PS) | 299 |
| TGGCAAGCATCCTGTA (sugars l4 d7 l2 d1 l2, PS) | 572 |
| TGGCAAGCATCCTGTA (sugars l4 d7 l2 d2 l1, PS) | 528 |
| TGGCAAGCATCCTGTA (sugars l4 d7 l3 d1 l1, PS) | 575 |
| TGGCAAGCATCCTGTA (sugars l4 d7 l5, PS) | 414 |
| TGGCAAGCATCCTGTA (sugars l4 d8 l1 d1 l2, PS) | 385 |
| TGGCAAGCATCCTGTA (sugars l4 d8 l1 d2 l1, PS) | 429 |
| TGGCAAGCATCCTGTA (sugars l4 d8 l2 d1 l1, PS) | 425 |
| TGGCAAGCATCCTGTA (sugars l4 d8 l4, PS) | 349 |
| TGGCAAGCATCCTGTA (sugars l4 d9 l1 d1 l1, PS) | 425 |
| TGGCAAGCATCCTGTA (sugars l4 d9 l3, PS) | 412 |
| TGGCAAGCATCCTGTA (sugars l4 d10 l2, PS) | 396 |
| TGGCAAGCATCCTGTA (sugars l4 d11 l1, PS) | 422 |
| TGGCAAGCATCCTGTA (sugars l5 d6 l1 d1 l3, PS) | 443 |
| TGGCAAGCATCCTGTA (sugars l5 d6 l1 d2 l2, PS) | 399 |
| TGGCAAGCATCCTGTA (sugars l5 d6 l1 d3 l1, PS) | 371 |
| TGGCAAGCATCCTGTA (sugars l5 d6 l2 d1 l2, PS) | 367 |
| TGGCAAGCATCCTGTA (sugars l5 d6 l2 d2 l1, PS) | 344 |
| TGGCAAGCATCCTGTA (sugars l5 d6 l3 d1 l1, PS) | 366 |
| TGGCAAGCATCCTGTA (sugars l5 d6 l5, PS) | 445 |
| TGGCAAGCATCCTGTA (sugars l5 d7 l1 d1 l2, PS) | 390 |
| TGGCAAGCATCCTGTA (sugars l5 d7 l1 d2 l1, PS) | 386 |
| TGGCAAGCATCCTGTA (sugars l5 d7 l2 d1 l1, PS) | 381 |

| Sequence | caspase activation (% of PBS control) |
| --- | --- |
| TGGCAAGCATCCTGTA (sugars l5 d7 l4, PS) | 358 |
| TGGCAAGCATCCTGTA (sugars l5 d8 l1 d1 l1, PS) | 401 |
| TGGCAAGCATCCTGTA (sugars l5 d8 l3, PS) | 360 |
| TGGCAAGCATCCTGTA (sugars l5 d9 l2, PS) | 402 |
| TGGCAAGCATCCTGTA (sugars l5 d10 l1, PS) | 403 |
| TGGCAAGCATCCTGTA (sugars lddddddddddldldl, PS) | 228 |
| TGGCAAGCATCCTGTA (sugars ldddlddddddddldl, PS) | 139 |
| TGGCAAGCATCCTGTA (sugars ldddldddddddlddl, PS) | 173 |
| TGGCAAGCATCCTGTA (sugars ldddldddddddldll, PS) | 245 |
| TGGCAAGCATCCTGTA (sugars ldddldddddddlldl, PS) | 167 |
| TGGCAAGCATCCTGTA (sugars ldddlddddddldddl, PS) | 159 |
| TGGCAAGCATCCTGTA (sugars ldddlddddddlddll, PS) | 221 |
| TGGCAAGCATCCTGTA (sugars ldddlddddddldldl, PS) | 213 |
| TGGCAAGCATCCTGTA (sugars ldddlddddddldlll, PS) | 230 |
| TGGCAAGCATCCTGTA (sugars ldddlddddddllddl, PS) | 246 |
| TGGCAAGCATCCTGTA (sugars ldddlddddddlldll, PS) | 285 |
| TGGCAAGCATCCTGTA (sugars ldddlddddddllldl, PS) | 224 |
| TGGCAAGCATCCTGTA (sugars lddldddddddddldl, PS) | 200 |
| TGGCAAGCATCCTGTA (sugars lddlddddddddlddl, PS) | 312 |
| TGGCAAGCATCCTGTA (sugars lddlddddddddldll, PS) | 371 |
| TGGCAAGCATCCTGTA (sugars lddlddddddddlldl, PS) | 392 |
| TGGCAAGCATCCTGTA (sugars lddldddddddldddl, PS) | 173 |
| TGGCAAGCATCCTGTA (sugars lddldddddddlddll, PS) | 271 |
| TGGCAAGCATCCTGTA (sugars lddldddddddldldl, PS) | 274 |
| TGGCAAGCATCCTGTA (sugars lddldddddddldlll, PS) | 303 |

| Sequence | caspase activation (% of PBS control) |
| --- | --- |
| TGGCAAGCATCCTGTA (sugars lddldddddddllddl, PS) | 314 |
| TGGCAAGCATCCTGTA (sugars lddldddddddlldll, PS) | 356 |
| TGGCAAGCATCCTGTA (sugars lddldddddddllldl, PS) | 394 |
| TGGCAAGCATCCTGTA (sugars lddllddddddddldl, PS) | 397 |
| TGGCAAGCATCCTGTA (sugars lddlldddddddlddl, PS) | 461 |
| TGGCAAGCATCCTGTA (sugars lddlldddddddldll, PS) | 412 |
| TGGCAAGCATCCTGTA (sugars lddlldddddddlldl, PS) | 409 |
| TGGCAAGCATCCTGTA (sugars lddllddddddldddl, PS) | 361 |
| TGGCAAGCATCCTGTA (sugars lddllddddddlddll, PS) | 257 |
| TGGCAAGCATCCTGTA (sugars lddllddddddldldl, PS) | 402 |
| TGGCAAGCATCCTGTA (sugars lddllddddddldlll, PS) | 353 |
| TGGCAAGCATCCTGTA (sugars lddllddddddllddl, PS) | 388 |
| TGGCAAGCATCCTGTA (sugars lddllddddddlldll, PS) | 388 |
| TGGCAAGCATCCTGTA (sugars lddllddddddllldl, PS) | 416 |
| TGGCAAGCATCCTGTA (sugars ldlddddddddddldl, PS) | 147 |
| TGGCAAGCATCCTGTA (sugars ldldddddddddlddl, PS) | 172 |
| TGGCAAGCATCCTGTA (sugars ldldddddddddldll, PS) | 252 |
| TGGCAAGCATCCTGTA (sugars ldldddddddddlldl, PS) | 281 |
| TGGCAAGCATCCTGTA (sugars ldlddddddddldddl, PS) | 160 |
| TGGCAAGCATCCTGTA (sugars ldlddddddddlddll, PS) | 218 |
| TGGCAAGCATCCTGTA (sugars ldlddddddddldldl, PS) | 206 |
| TGGCAAGCATCCTGTA (sugars ldlddddddddldlll, PS) | 195 |
| TGGCAAGCATCCTGTA (sugars ldlddddddddllddl, PS) | 197 |
| TGGCAAGCATCCTGTA (sugars ldlddddddddlldll, PS) | 227 |
